{"source": "paper PMC6309520", "about": "(Cell chemical biology, 2018)", "biological_target": "T1, ARH3 (ADP-ribosyl hydrolase 3, ADPRHL2) (Homo sapiens, UniProt Q9NX46)", "T1 sequence (Q9NX46 1-363)": "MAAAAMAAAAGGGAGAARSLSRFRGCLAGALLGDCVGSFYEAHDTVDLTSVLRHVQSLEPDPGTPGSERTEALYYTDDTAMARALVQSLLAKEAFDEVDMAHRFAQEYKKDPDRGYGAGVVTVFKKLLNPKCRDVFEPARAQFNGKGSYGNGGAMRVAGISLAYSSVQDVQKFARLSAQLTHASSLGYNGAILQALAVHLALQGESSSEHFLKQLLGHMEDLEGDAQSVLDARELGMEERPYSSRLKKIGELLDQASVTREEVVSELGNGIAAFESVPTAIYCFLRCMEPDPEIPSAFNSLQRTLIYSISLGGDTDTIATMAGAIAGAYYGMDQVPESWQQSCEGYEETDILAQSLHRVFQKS", "assay": "Michaelis-Menten kinetics", "type": "biochemical"}
{"smiles": "O=c1cc(C(F)(F)F)c2ccc(O[C@H]3O[C@H](COP(=O)(O)OP(=O)(O)OC[C@H]4O[C@@H](n5cnc6c(=O)[nH]cnc65)[C@H](O)[C@@H]4O)[C@@H](O)[C@H]3O)cc2o1", "note": "[compound 12, TFMU-IDPr]", "values": [{"measurement": "Km", "value": "312 ± 30", "unit": "µM"}]}
